Three compounds from patent publication US20220339271A1, “MR1 RESTRICTED T CELL RECEPTORS FOR CANCER IMMUNOTHERAPY” (Universität Basel, priority 2018, published 2022) can be followed below.

Common to all, as to format: cell-based, human
The test system of one data set is MAIT cell clone SMC3. The data set can be described thus: Stimulation of control MAIT cell clone by RL-6,7-diMe-loaded THP-1 cells. The method, then:
(§1) T cell activation assays. MR1-restricted T cells (5×10^4/well unless otherwise indicated) were co-cultured with indicated target cells (5×10^4/well) in 200 μl total volume in duplicates or triplicates. T cells were cultured with indicated APCs for 24 h. In some experiments, anti-MR1 mAbs (clone 26.5) or mouse IgG2a isotype control mAbs (both at 30 μg/ml) were added and incubated for 30 min prior to the addition of T cells. E. coli lysate was prepared from the DH5α strain (Invitrogen) grown in LB medium and collected during exponential growth. Bacterial cells were washed twice in PBS and then lysed by sonication. After centrifugation (15,000 g for 15 min), the supernatant was collected, dried, and stored at −70° C. APCs were pulsed for 4 h with E. coli lysate equivalent to 10^8 CFU/ml (unless otherwise indicated) before addition of T cells. […] Supernatants were collected after 24 h and IFN-γ or GM-CSF were assessed by ELISA. Multiple cytokines and chemokines in cell culture supernatants were analyzed using the Milliplex MAP human cytokine/chemokine magnetic bead panel—Premixed 41 plex (HCYTMAG-60K-PX41; Merck Millipore) according to the manufacturer's instructions. Samples were acquired on a Flexmap 3D system (Merck Millipore) and Milliplex analyst software was used to determine mean fluorescence intensity and analyte concentration.

For another data set, the system named is control MAIT cells. The data set can be described thus: E. coli stimulation of control MAIT cells in the presence of 6-FP or Ac-6-FP. The settings on record: for E. coli stimulation of control MAIT cells in the presence of the ligand: A375-MR1 target cells; for inhibition of activation of MAIT cells: target A375 cells expressing mutant MR1 (A375-MR1 K34A). The protocol: (§2) T cell activation assays. MR1-restricted T cells (5×10^4/well unless otherwise indicated) were co-cultured with indicated target cells (5×10^4/well) in 200 μl total volume in duplicates or triplicates. T cells were cultured with indicated APCs for 24 h. […] E. coli lysate was prepared from the DH5α strain (Invitrogen) grown in LB medium and collected during exponential growth. Bacterial cells were washed twice in PBS and then lysed by sonication. After centrifugation (15,000 g for 15 min), the supernatant was collected, dried, and stored at −70° C. APCs were pulsed for 4 h with E. coli lysate equivalent to 10^8 CFU/ml (unless otherwise indicated) before addition of T cells. In some experiments, APCs were pre-incubated with 6-FP or Ac-6-FP (Schircks Laboratories) for 4 h before co-culture with T cells. In control experiments with TCR γδ cells expressing TCR Vγ9 and Vδ2 chains, the APCs were first treated for 6 h with zoledronate (10 μg/ml) prior to T cell addition. Activation experiments with plate-bound recombinant human β2m-MR1-Fc were performed by coating β2m-MR1-Fc onto 96 well plates (4 μg/ml) and loading with cartridge-purified cell lysates for 4 h at 37° C. before washing twice and adding T cells. Supernatants were collected after 24 h and IFN-γ or GM-CSF were assessed by ELISA. Multiple cytokines and chemokines in cell culture supernatants were analyzed using the Milliplex MAP human cytokine/chemokine magnetic bead panel—Premixed 41 plex (HCYTMAG-60K-PX41; Merck Millipore) according to the manufacturer's instructions. Samples were acquired on a Flexmap 3D system (Merck Millipore) and Milliplex analyst software was used to determine mean fluorescence intensity and analyte concentration.

A further data set deals with TCR Vγ9Vδ2 clone G2B9. The data set can be described thus: Control TCR γδ cell response to zoledronate-treated APCs in the presence of 6-FP or Ac-6-FP. The method, then:
as §1, with “In some experiments, anti-MR1 mAbs (clone 26.5) or mouse IgG2a isotype control mAbs (both at 30 μg/ml) were added and incubated for 30 min prior to the addition of T cells.” left out, “cells. In some experiments, APCs were pre-incubated with 6-FP or Ac-6-FP (Schircks Laboratories) for 4 h before co-culture with T cells.” for “cells.”

Another data set concerns MR1T cell clones. The experiment in a line: MR1T cell clone stimulation by A375-MR1 cells in the presence of 6-FP or Ac-6-FP. Particulars: for MR1T cell stimulation in the presence of the ligand: A375-MR1 target cells; for inhibition of activation of MR1T cells: target A375 cells expressing mutant MR1 (A375-MR1 K34A). The method, then: as §2

Regarding `Cc1nc2c(=O)[nH]c(=O)nc-2n(C[C@H](O)[C@H](O)[C@H](O)CO)c1C` [RL-6,7-diMe, 6,7-dimethyl-8-D-ribityllumazine], the “stimulation of control MAIT cell clone” value with MAIT cell clone SMC3 is reported as “stimulated in MR1-dependent manner”.
Turning to `CC(=O)Nc1nc2ncc(C=O)nc2c(=O)[nH]1` [Ac-6-FP, acetyl-6-formyl pterin], in the data set with control MAIT cells, the “E. coli stimulation of control MAIT cells in the presence of the ligand” value is reported as “impaired” and the “inhibition of activation of MAIT cells” value is recorded as “failed to inhibit”. Also, the “control TCR γδ cell responses to cognate antigen presented by the same APCs (compound toxicity)” value in the data set on TCR Vγ9Vδ2 clone G2B9 is listed as “did not disrupt”. Also, in the data set on MR1T cell clones, the “MR1T cell stimulation in the presence of the ligand” value is reported as “impaired” and the “inhibition of activation of MR1T cells” value is given as “failed to inhibit”.
Regarding `Nc1nc2ncc(C=O)nc2c(=O)[nH]1` [Clone 6-FP, 6-formyl pterin], in the data set on control MAIT cells, the “E. coli stimulation of control MAIT cells in the presence of the ligand” value was “impaired” and the “inhibition of activation of MAIT cells” value is “failed to inhibit”. The “control TCR γδ cell responses to cognate antigen presented by the same APCs (compound toxicity)” value with TCR Vγ9Vδ2 clone G2B9 is recorded as “did not disrupt”. For the same compound, in the data set on MR1T cell clones, the “MR1T cell stimulation in the presence of the ligand” value is listed as “impaired” and the “inhibition of activation of MR1T cells” value is listed as “failed to inhibit”.
